In the supplement of paper PMC4862054:

Assays:
Settings in all cases: incubation time: 72 h
BT-474 [1] = experiment: normalised response (% of control), CellTiter-Glo; higher = more viable cells (100 = DMSO, 0 = benzethonium chloride kill control)
How it was run: (§1)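 The table gives the normalised signal for a single concentration in each entry. Breast cancer cell lines were seeded (20 µl suspension) into 384-well plates holding compound at 5 concentrations in 10-fold steps over a compound-specific 10,000-fold range and incubated 72 h, then read for CellTox Green fluorescence (485/520 nm) and CellTiter-Glo luminescence. Normalisation on each plate used 0.1 % DMSO (100) and a positive kill control (0).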

BT-549 [2] = experiment: as above
How it was run: as §1

CAL-120 [3] = experiment: as above
How it was run: as §1

CAL-148 [4] = experiment: as above
How it was run: as §1

CAL-51 [5] = experiment: as above
How it was run: as §1

CAL-85-1 [6] = experiment: as above
How it was run: as §1

DU-4475 [7] = experiment: as above
How it was run: as §1

HCC1143 [8] = experiment: as above
How it was run: as §1

HCC1599 [9] = experiment: as above
How it was run: as §1

HCC1937 [10] = experiment: as above
How it was run: as §1

HDQ-P1 [11] = experiment: as above
How it was run: as §1

Hs578T [12] = experiment: as above
How it was run: as §1

MCF-10A = experiment: as above
How it was run: as §1

MDA-MB-231 [13] = experiment: as above
How it was run: as §1

MDA-MB-436 [14] = experiment: as above
How it was run: as §1

MDA-MB-453 [15] = experiment: as above
How it was run: as §1

MDA-MB-468 [16] = experiment: as above
How it was run: as §1

MFM-223 [17] = experiment: as above
How it was run: as §1

SK-BR-3 [18] = experiment: as above
How it was run: as §1

BT-474 [19] = experiment: normalised viability (% of control), CellTiter-Blue; higher = more viable cells (100 = DMSO, 0 = benzethonium chloride kill control)
How it was run: (§2)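 Plates were quality-checked by Z'-factor and normalised to vehicle (100) and a positive kill control (0). The underlying assay incubated breast cancer cell lines for 72 h on 384-well plates with compound, then added 2.5 µl CellTiter-Blue for 2 h at 37 °C and read at 560/590 nm. The value is normalised viability at a single listed concentration of the series.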

BT-549 [20] = experiment: as above
How it was run: as §2

CAL-120 [21] = experiment: as above
How it was run: as §2

CAL-148 [22] = experiment: as above
How it was run: as §2

CAL-51 [23] = experiment: as above
How it was run: as §2

CAL-85-1 [24] = experiment: as above
How it was run: as §2

DU-4475 [25] = experiment: as above
How it was run: as §2

HCC1143 [26] = experiment: as above
How it was run: as §2

HCC1599 [27] = experiment: as above
How it was run: as §2

HCC1937 [28] = experiment: as above
How it was run: as §2

HDQ-P1 [29] = experiment: as above
How it was run: as §2

Hs578T [30] = experiment: as above
How it was run: as §2

MDA-MB-231 [31] = experiment: as above
How it was run: as §2

MDA-MB-436 [32] = experiment: as above
How it was run: as §2

MDA-MB-453 [33] = experiment: as above
How it was run: as §2

MDA-MB-468 [34] = experiment: as above
How it was run: as §2

MFM-223 [35] = experiment: as above
How it was run: as §2

SK-BR-3 [36] = experiment: as above
How it was run: as §2

| Compound | normalised response (BT-474 [1]) [%] | normalised response (BT-549 [2]) [%] | normalised response (CAL-120 [3]) [%] | normalised response (CAL-148 [4]) [%] | normalised response (CAL-51 [5]) [%] | normalised response (CAL-85-1 [6]) [%] | normalised response (DU-4475 [7]) [%] | normalised response (HCC1143 [8]) [%] | normalised response (HCC1599 [9]) [%] | normalised response (HCC1937 [10]) [%] | normalised response (HDQ-P1 [11]) [%] | normalised response (Hs578T [12]) [%] | normalised response (MCF-10A) [%] | normalised response (MDA-MB-231 [13]) [%] | normalised response (MDA-MB-436 [14]) [%] | normalised response (MDA-MB-453 [15]) [%] | normalised response (MDA-MB-468 [16]) [%] | normalised response (MFM-223 [17]) [%] | normalised response (SK-BR-3 [18]) [%] | normalised viability (BT-474 [19]) [%] | normalised viability (BT-549 [20]) [%] | normalised viability (CAL-120 [21]) [%] | normalised viability (CAL-148 [22]) [%] | normalised viability (CAL-51 [23]) [%] | normalised viability (CAL-85-1 [24]) [%] | normalised viability (DU-4475 [25]) [%] | normalised viability (HCC1143 [26]) [%] | normalised viability (HCC1599 [27]) [%] | normalised viability (HCC1937 [28]) [%] | normalised viability (HDQ-P1 [29]) [%] | normalised viability (Hs578T [30]) [%] | normalised viability (MDA-MB-231 [31]) [%] | normalised viability (MDA-MB-436 [32]) [%] | normalised viability (MDA-MB-453 [33]) [%] | normalised viability (MDA-MB-468 [34]) [%] | normalised viability (MFM-223 [35]) [%] | normalised viability (SK-BR-3 [36]) [%] |
| --- | --- | --- | --- | --- | --- | --- | --- | --- | --- | --- | --- | --- | --- | --- | --- | --- | --- | --- | --- | --- | --- | --- | --- | --- | --- | --- | --- | --- | --- | --- | --- | --- | --- | --- | --- | --- | --- |
| Cn1c(Nc2ccc(C(F)(F)F)cc2)nc2cc(Oc3ccnc(-c4ncc(C(F)(F)F)[nH]4)c3)ccc21 [RAF265] (0.1 nM) | 107 | 104 | 99 | 110 | 73.6 | 102 | 107 | 106 | 112 | 102 | 103 | 106 | 107 | 103 | 104 | 118 | 102 | 108 | 110 | 102 | 117 | 86.2 | 95.6 | 94.2 | 87.7 | 105 | 104 | 119 | 99 | 80.2 | 111 | 117 | 104 | 103 | 104 | 96 | 89.5 |
| CNCc1ccc(-c2[nH]c3cc(F)cc4c3c2CCNC4=O)cc1 [Rucaparib] (1 nM) | 92.6 | 96.9 | 96.3 | 98.2 | 117 | 100 | 99.4 | 94.1 | 98.4 | 97.8 | 97.2 | 102 | 84.6 | 99.1 | 98.5 | 98.2 | 96.8 | 95.9 | 82.4 | 109 | 95.3 | 79.5 | 96.4 | 113 | 88.6 | 111 | 103 | 122 | 108 | 68.1 | 97.4 | 105 | 104 | 95.2 | 110 | 91.6 | 100 |
| N[C@@H](CSC(c1ccccc1)(c1ccccc1)c1ccccc1)C(=O)O [S-trityl-L-cysteine] (4 nM) | 105 | 96.5 | 106 | 103 | 81 | 101 | 95.7 | 97 | 87.5 | 92 | 103 | 95.5 | 97.6 | 100 | 85.6 | 107 | 101 | 96.9 | 99.6 | 91.1 | 85.8 | 115 | 112 | 91.3 | 122 | 116 | 143 | 108 | 89 | 96.6 | 106 | 104 | 109 | 88.6 | 101 | 105 | 88.2 |
| CN(N=O)C(=O)N[C@@H](C=O)[C@@H](O)[C@H](O)[C@H](O)CO [Streptozocin] (1 nM) | 98.8 | 102 | 103 | 102 | 80.8 | 94.2 | 95.7 | 105 | 96.4 | 104 | 104 | 106 | 113 | 108 | 104 | 92.1 | 97.5 | 105 | 106 | 81 | 102 | 101 | 111 | 110 | 91.4 | 104 | 99 | 132 | 99.1 | 116 | 103 | 106 | 100 | 111 | 102 | 92.8 | 106 |
